Assay results taken from publication PMC6154738, “Anti-Onchocerca and Anti-Caenorhabditis Activity of a Hydro-Alcoholic Extract from the Fruits of Acacia nilotica and Some Proanthocyanidin Derivatives” (Molecules : A Journal of Synthetic Chemistry and Natural …, 2017).
Converted amounts (≈) assume the structure as drawn. Where two headings read alike, the source gives them in different places.

Key:
O. ochengi microfilariae = test: microbe, parasite or virus in culture; design: species or system Onchocerca ochengi; conditions: for LC50: Onchocerca ochengi, 48 h; for Selectivity Index (SI) O. ochengi Microfilariae: SI = CC50 on Caco-2/LC50 on worm
Experimental: Microfilariae were isolated as describe by Cho-Ngwa et al. and Ndjonka et al.. About 10 skin snips were obtained from different locations of the skin. The skin snips were then incubated at 37 °C in PBS to let Mf emerge. The highly motile Mf were concentrated by centrifugation at 400× g for 10 min and quantified. The Mf were incubated at 37 °C with the crude extract, fractions and pure compounds.
(§1) Adult worms (six individuals per well for males and one per well for the female) and Mf were washed twice and were subsequently transferred to RPMI-1640 medium supplemented with L-glutamine, 100 U/mL penicillin and 100 µg/mL streptomycin and incubated at 37 °C in 24-well plates (96-well plate for Mf) with different concentrations of the drugs tested. Worm mortality was checked by observation under the binocular microscope after 48 h. After shaking, immotile and fully-elongated worms were considered to be dead. All tests were done in three independent triplicate determinations.

O. ochengi females = test: microbe, parasite or virus in culture; design: species or system Onchocerca ochengi; conditions: for LC50: Onchocerca ochengi, 48 h; for Selectivity Index (SI) O. ochengi Females: SI = CC50 on Caco-2/LC50 on worm
Experimental: The adult female worms were isolated by digestion of the nodules with collagenase at 37 °C. The female worms were cultured in a CO2-incubator [67]. For anthelmintic activity, they were incubated with the crude extracts, fractions and pure compounds.
as §1

[1] = In vitro cytotoxicity (MTT) and CC50 determination; format: cell-based; conditions: human; for CC50 at 48 h: Caco-2, CC50 after 48 h calculated in µM, read-out: Cytotoxicity CC50, Caco-2 (in brackets) (converted); for CC50 at 72 h: Caco-2, MTT, read-out: Cytotoxicity, means CC50 ± SD, Caco-2
Experimental: Cell culture: […] cells at Passage 70 were kindly provided by Prof. Hensel, Institute of Pharmaceutical Biology and Phytochemistry, University of Münster, and were cultured as previously describe by Zumdick et al..
Cytotoxicity test: The cytotoxicity assays were performed according to the method of Rahman et al.. Briefly, 1.5 × 10^4 viable cells/well were seeded in a 96-well plate and incubated for 24 to 48 h. […] DMEM samples were used as the negative control. […] The medium was removed, and formazan, generated by the activity of dehydrogenases, was solubilized with 70 µL of acidified isopropanol (0.4 M HCl). The amount of MTT-formazan that is directly proportional to the number of living cells was determined by measuring the optical density (OD) at 540 nm using a spectrophotometer. All controls used were treated equally. As control and to determine 100% growth, Caco-2 cells were grown in the absence of drugs so as to calculate cell viability. All determinations were performed in triplicate. […] The selectivity index (SI) values were calculated as the ratio: SI = CC50 of drug on Caco2/LC50 of drug on worm.

O. ochengi males = test: microbe, parasite or virus in culture; design: species or system Onchocerca ochengi; conditions: for LC50: Onchocerca ochengi, 48 h; for Selectivity Index (SI) O. ochengi Males: SI = CC50 on Caco-2/LC50 on worm
Description: The adult male worms were isolated as previously describe by Ndjonka et al. from fresh pieces of cattle skin (cow-udder) with palpable nodules obtained from the communal slaughter house of Ngaoundere in the Adamawa region of Cameroon. Nodules removed from the skin were brought to the laboratory, washed, drained and sterilized with 70% ethanol for dissection. After dissection of nodules, O. ochengi were extracted, isolated and washed three times in sterile phosphate-buffered saline (PBS). To analyze the anthelmintic activity of extract, fractions and pure compounds, the worms were incubated at 37 °C.
as §1

O. ochengi [2] = test: Anti-Onchocerca activity, all forms of the parasite (summary statements); conditions: read-out: LC50 against O. ochengi (all three forms)
Experimental: as §1

[3] = test system: C. elegans DA1316 (avr-14(ad1302) I avr-15(ad1051) glc-1(pk54)); test: microbe, parasite or virus in culture; conditions: Caenorhabditis elegans, 48 h
Experimental: (§2) All strains were obtained from the Caenorhabditis Genetic Centre (CGC, Minneapolis, MN, USA). Strains were maintained at 20 °C on nematode growth medium (NGM). All worms were age-synchronized and obtained from eggs that were isolated by bleaching.
(§3) Young adult (L4 stage) worms were used to assess drug lethality. Monitored endpoint was 48 h mortality. Tests were performed in 24-well plates. Five hundred (500) microliters of test solution, which is M9-buffer (3 g KH2PO4, 6 g Na2HPO4, 5 g NaCl, 0.25 g MgSO4.7H2O, in 1 L of water after been autoclaved supplemented with 2% glucose, 0.5% cholesterol), were distributed in 24-well plates. The volume of M9-buffer equivalent to the drug to be added for each drug final concentration (in each test, three to six concentrations were used) was removed. Untreated worms in M9-buffer were used as negative control. […] Crude extract fraction (stock solution at 100 mg/mL) and pure compound (stock solution at 100 mg/mL) previously dissolved in M9-buffer were then added in well plates at increasing concentration (varying from 0 to 1000 or 1500 µg/mL for extract and fractions; 0 to 100 or 150 µg/mL). The young adult (10 to 15 ± 2) from the axenic culture (without food source) were then added at the test solution. […] Treatments were replicated three times.

[4] = test system: C. elegans CB211 (lev-1(e211) IV); test: microbe, parasite or virus in culture; conditions: Caenorhabditis elegans, 48 h
Experimental: as §2, §3

[5] = test system: C. elegans VC722 (glc-2(ok1047) I); test: microbe, parasite or virus in culture; conditions: Caenorhabditis elegans, 48 h
Experimental: as §2, §3

C. elegans N2 Bristol WT = test: microbe, parasite or virus in culture; conditions: for LC50: Caenorhabditis elegans, 48 h; for Selectivity Index (SI) C. elegans Wild Type: SI = CC50 on Caco-2/LC50 on worm
Experimental: as §2, §3

[6] = test system: C. elegans ZZ16 (lev-9(x16) X); test: microbe, parasite or virus in culture; conditions: Caenorhabditis elegans, 48 h
Experimental: as §2, §3

[7] = test system: C. elegans CB3474 (ben-1(e1880) III); test: microbe, parasite or virus in culture; conditions: Caenorhabditis elegans, 48 h
Experimental: as §2, §3

Wistar rats = test: Acute oral toxicity on rats
Description: Adult Wistar rats (Rattus norvegicus), males aged 7 to 8 weeks and weighing 150 to 200 g, used for the experiments were obtained from LANAVET (Laboratoire National Vétérinaire, Garoua, Cameroon). The rats were acclimatized for one week in the Veterinary Research Laboratory of the Institute of Agricultural Research for Development, Wakwa, Cameroon, before initiating experiments. Animals were housed in groups of three (one group for the negative control, six groups for each drug at the first phase, six others at the second phase) under ambient temperatures (23 °C ± 1 °C) with relative humidity 55 ± 5% and 12 h light/dark cycle in polycarbonate cages. […] They were monitored by a veterinarian for health status.
Acute oral toxicity (LD50, that is the dose that kills 50% of animals of the tested group) was measured using the method of the OECD guidelines for the testing of chemicals [56] following the European Community guidelines for the protection of animals used in experiments [69] and respecting the 3Rs (Replacement, Refinement, Reduction) [70]. Drugs in distilled water were orally administered separately at doses of 10 mg/kg, 100 mg/kg and 1000 mg/kg body weight. The negative controls were distilled water-administered rats. They were given to three groups of three rats each and observed for 24 h. […] The test was done at a single oral dose for each rat in a 5 mL/kg volume. The experimental animals were starved for 24 h before and 4 h after treatment. […] The appearance of toxic symptoms, such as behavioral changes, locomotion, convulsions and mortality, was observed and recorded. Animals were observed constantly for the first 30 min after administration and, thereafter, every 4 h up to 24 h and, subsequently, once a day for up to 14 days.

O. ochengi [8] = conditions: cited from earlier work
[9] = read-out: LC50/48 h (in brackets)
[10] = Phase 1, 10 mg/kg single oral dose
[11] = Phase 1, 100 mg/kg single oral dose
[12] = Phase 1, 1000 mg/kg single oral dose
[13] = Phase 2, 1500 mg/kg single oral dose
[14] = Phase 2, 3000 mg/kg single oral dose
[15] = Phase 2, 5000 mg/kg single oral dose

Compound | LC50 (O. ochengi microfilariae; read-out: LC50/48 h) [µg/mL] | LC50 (O. ochengi microfilariae; [9]) [µM] | Selectivity Index (SI) O. ochengi Microfilariae (O. ochengi microfilariae) | LC50 (O. ochengi females; read-out: LC50/48 h) [µg/mL] | LC50 (O. ochengi females; [9]) [µM] | Selectivity Index (SI) O. ochengi Females (O. ochengi females) | CC50 at 48 h [1] [µM] | CC50 at 72 h [1] [µg/mL] | LC50 (O. ochengi males; read-out: LC50/48 h) [µg/mL] | LC50 (O. ochengi males; [9]) [µM] | Selectivity Index (SI) O. ochengi Males (O. ochengi males) | LC50 ([3]; read-out: LC50/48 h) [µg/mL] | LC50 [3, 9] [µM] | LC50 ([4]; read-out: LC50/48 h) [µg/mL] | LC50 [4, 9] [µM] | LC50 (C. elegans N2 Bristol WT; read-out: LC50/48 h) [µg/mL] | LC50 (C. elegans N2 Bristol WT; [9]) [µM] | Selectivity Index (SI) C. elegans Wild Type (C. elegans N2 Bristol WT) | LC50 ([6]; read-out: LC50/48 h) [µg/mL] | LC50 ([7]; read-out: LC50/48 h) [µg/mL] | also measured
O=C(OC1Cc2c(O)cc(O)cc2OC1c1cc(O)c(O)c(O)c1)c1cc(O)c(O)c(O)c1 (single isomer, unassigned; (-)) [EGCG, (−)-epigallocatechin-3-O-gallate] | 1.3 ± 0.2 | 2.8 | 46.9 | 1 ± 0.5 | 2.3 | 60.9 | 133 | 60.9 ± 0.8 (≈ 133 µM) | 1.2 ± 0.5 | 2.6 | 50.8 | 40.8 ± 0.3 | 89.1 | 26.3 ± 1.3 | 57.4 | 49.8 ± 0.8 | 109 | 1.2 | > 100 | 35.7 ± 1 | LC50 (O. ochengi [2]): < 2.5 µg/mL; LC50 ([5]; read-out: LC50/48 h): 43.7 ± 2.1 µg/mL; LC50 [5, 9]: 95.4 µM; LC50 [7, 9]: 77.9 µM
CCCSc1ccc2nc(NC(=O)OC)[nH]c2c1 [Albendazole, reference compound] | 2.1 ± 0.5 | 7.8 | 14 | 1 ± 0.2 | 3.9 | 29.4 | 111 | 29.4 ± 0.5 (≈ 111 µM) | 4.2 ± 0.3 | 15.7 | 7 |  |  |  |  |  | 26.4 | 4.1 |  | > 100 | Mortality of rats: rat number end/start (Wistar rats; [10]): 0/3; Mortality of rats: rat number end/start (Wistar rats; [11]): 0/3; Mortality of rats: rat number end/start (Wistar rats; [12]): 0/3; Mortality of rats: rat number end/start (Wistar rats; [13]): 0/3; Mortality of rats: rat number end/start (Wistar rats; [14]): 0/3; Mortality of rats: rat number end/start (Wistar rats; [15]): 0/3
O=C(O[C@H]1Cc2c(O)cc(O)cc2O[C@@H]1c1ccc(O)c(O)c1)c1cc(O)c(O)c(O)c1 [CG, (+)-catechin-3-O-gallate] | 4.2 ± 0.1 | 9.4 | 15.8 | 4.5 ± 0.3 | 10.2 | 14.7 | 150 | 66.3 ± 0.6 (≈ 150 µM) | 7.6 ± 0.2 | 17.2 | 8.7 | 96.3 ± 0.3 | 218 | 96.4 ± 0.1 | 218 | 90.6 ± 0.07 | 205 | 0.7 | 95.3 ± 0.1 | 95.2 ± 0.3 | Mortality of rats: rat number end/start (Wistar rats; [10]): 0/3; Mortality of rats: rat number end/start (Wistar rats; [11]): 0/3; Mortality of rats: rat number end/start (Wistar rats; [12]): 0/3; Mortality of rats: rat number end/start (Wistar rats; [13]): 0/3; Mortality of rats: rat number end/start (Wistar rats; [14]): 0/3; Mortality of rats: rat number end/start (Wistar rats; [15]): 0/3; LC50 ([5]; read-out: LC50/48 h): 91.8 ± 0.3 µg/mL; LC50 [5, 9]: 208 µM; LC50 [6, 9]: 215 µM; LC50 [7, 9]: 215 µM
Oc1cc(O)c2c(c1)O[C@H](c1cc(O)c(O)c(O)c1)[C@H](O)C2 [EGC, (−)-epigallocatechin] | 3.3 ± 0.5 | 10.6 | 14.3 | 3.3 ± 0.6 | 10.6 | 14.3 | 154 | 47.1 ± 0.5 (≈ 154 µM) | 2.1 ± 0.4 | 6.8 | 22.4 | 87.5 ± 0.5 | 286 | 83.3 ± 0.6 | 272 | 62.7 ± 0.2 | 205 | 0.8 | 92 ± 0.3 | 53.8 ± 0.9 | Mortality of rats: rat number end/start (Wistar rats; [10]): 0/3; Mortality of rats: rat number end/start (Wistar rats; [11]): 0/3; Mortality of rats: rat number end/start (Wistar rats; [12]): 0/3; Mortality of rats: rat number end/start (Wistar rats; [13]): 0/3; Mortality of rats: rat number end/start (Wistar rats; [14]): 0/3; Mortality of rats: rat number end/start (Wistar rats; [15]): 0/3; LC50 ([5]; read-out: LC50/48 h): 93.8 ± 0.3 µg/mL; LC50 [5, 9]: 306 µM; LC50 [6, 9]: 301 µM; LC50 [7, 9]: 176 µM
Oc1cc(O)c2c(c1)O[C@H](c1cc(O)c(O)c(O)c1)[C@@H](O)C2 [GC, (+)-gallocatechin] | 3.2 ± 0.3 | 10.4 | 20.8 | 5.5 ± 0.3 | 18 | 12.1 | 218 | 66.7 ± 0.7 (≈ 218 µM) | 4.2 ± 0.1 | 13.6 | 15.9 | 82.5 ± 0.1 | 269 | 21.5 ± 0.3 | 70.2 | 74.3 ± 0.3 | 242 | 0.9 | 65.6 ± 0.2 | 83.1 ± 0.1 | Mortality of rats: rat number end/start (Wistar rats; [10]): 0/3; Mortality of rats: rat number end/start (Wistar rats; [11]): 0/3; Mortality of rats: rat number end/start (Wistar rats; [12]): 0/3; Mortality of rats: rat number end/start (Wistar rats; [13]): 0/3; Mortality of rats: rat number end/start (Wistar rats; [14]): 0/3; Mortality of rats: rat number end/start (Wistar rats; [15]): 0/3; LC50 ([5]; read-out: LC50/48 h): 96.3 ± 0.07 µg/mL; LC50 [5, 9]: 314 µM; LC50 [6, 9]: 214 µM; LC50 [7, 9]: 271 µM
c1ccc([C@H]2CN3CCSC3=N2)cc1 [Levamisole, reference compound] | 1 ± 0.3 | 5.1 | 27.3 | 2.1 ± 0.1 | 10.2 | 13.0 | 31.2 | 27.3 ± 0.8 (≈ 134 µM) | 1 ± 1 | 5.1 | 27.3 |  |  | > 100 |  | 1.4 ± 0.2 | 7.2 |  | > 100 |  | 
CCCCC/C=C\C/C=C\CCCCCCCC(=O)O [linoleic acid] |  |  |  |  |  |  |  |  |  |  |  |  |  |  |  |  |  |  |  |  | LC50 (O. ochengi [8]): 55.7 µM
